Data as given in US8013006B2.

test system: HCV replicon; experiment: microbe, parasite or virus in culture; format: cell-based; details: Hepatitis C virus, 48 h, read-out: Replicon IC5Os

| SMILES | IC50 |
| --- | --- |
| CCn1c(-c2ccc(NC(=O)OCCCl)cc2)c(C#N)c2ccc(OC)cc21 [Compound 637] | < 0.5 µM |
| CCCS(=O)(=O)Nc1ccccc1-c1c(C#N)c2ccc(OC)cc2n1CC [Compound 662] | < 0.5 µM |
| CCn1c(-c2ccc(N(C)S(=O)(=O)CCN3CCCC3)cc2)c(C#N)c2ccc(OC)cc21 [Compound 697] | < 0.5 µM |
| CCn1c(-c2ccc(N(C)S(=O)(=O)CCN3CCSCC3)cc2)c(C#N)c2ccc(OC)cc21 [Compound 698] | 0.5 to 2 µM |
| COc1ccc2c(C#N)c(-c3ccc(N4CCCS4(=O)=O)cc3)n(CC3CC3)c2c1 [Compound 716, 2-[4-(1,1-dioxidoisothiazolidin-2-yl)phenyl]-1-cyclopropylmethyl-6-methoxy-1H-indole-3-carbonitrile] | 0.5 to 2 µM |
| CCOC(=O)Nc1cccc(-c2c(C#N)c3ccc(OC(F)F)cc3n2CC2CC2)c1 [Compound 745] | < 0.5 µM |
| CCn1c(-c2ccc(NC(=O)c3ccno3)cc2)c(C#N)c2ccccc21 [Compound 755] | < 0.5 µM |
| CCn1c(-c2ccc(NC(=O)c3snnc3C)cc2)c(C#N)c2ccccc21 [Compound 756] | < 0.5 µM |
| CCC(=O)Nc1ccc(-c2c(C#N)c3ccc(OC(C)C)cc3n2CC)cc1 [Compound 759] | < 0.5 µM |
| CCn1c(-c2ccc(NC(=O)C3CCC3)cc2)c(C#N)c2ccc(OC(C)C)cc21 [Compound 760] | < 0.5 µM |

same assay, conditions: Hepatitis C virus, 48 h, read-out: Replicon IC5Os μM

| SMILES | IC50 |
| --- | --- |
| CCn1c(-c2ccc(NS(=O)(=O)C(C)C)cc2)c(C#N)c2cc(OC)ccc21 [Compound 790] | < 0.5 µM |
| CCCC(=O)Nc1ccc(-c2c(C#N)c3ccc(OC)cc3n2CC)cc1 [Compound 799] | < 0.5 µM |

same assay, conditions: Replicon IC50 values are determined by firefly luciferase signal; bicistronic replicon, 2 days; read-out: Replicon IC5Os

| SMILES | IC50 |
| --- | --- |
| C=Cn1c(-c2ccc(NS(C)(=O)=O)cc2)c(C#N)c2ccc(OC)cc21 [Compound 632] | 0.5 to 2 µM |
| C=Cn1c(-c2ccc(NS(=O)(=O)CCC)cc2)c(C#N)c2ccc(OC)cc21 [Compound 634] | 0.5 to 2 µM |
| C=Cn1c(-c2ccc(NS(=O)(=O)CCCCl)cc2)c(C#N)c2ccc(OC)cc21 [Compound 636] | < 0.5 µM |
| CCCn1c(-c2cccc(NS(=O)(=O)CCC)c2)c(C#N)c2ccc(OC)cc21 [Compound 639] | > 2 µM |
| CCCn1c(-c2ccc(NC(=O)OCCF)cc2)c(C#N)c2ccc(OC)cc21 [Compound 640] | 0.5 to 2 µM |
| CCCn1c(-c2ccc(N(C)S(=O)(=O)CC)cc2)c(C#N)c2ccc(OC)cc21 [Compound 643] | 0.5 to 2 µM |
| CCC(=O)Nc1ccc(-c2c(C#N)c3cc(OC)ccc3n2CC)cc1 [Compound 644] | > 2 µM |
| CCn1c(-c2ccc(NC(=O)c3ccc4c(c3)OCO4)cc2)c(C#N)c2ccccc21 [Compound 645] | > 2 µM |
| CCn1c(-c2ccc(NC(=O)c3ccco3)cc2)c(C#N)c2ccccc21 [Compound 646] | 0.5 to 2 µM |
| CCn1c(-c2ccc(C(=O)Nc3ccc(Cl)cc3)cc2)c(C#N)c2cc(OC)ccc21 [Compound 647] | > 2 µM |
| CCn1c(-c2ccc(C(=O)Nc3ccc(Cl)c(Cl)c3)cc2)c(C#N)c2cc(OC)ccc21 [Compound 648] | 0.5 to 2 µM |
| CCCn1c(-c2ccc(N3CCCS3(=O)=O)cc2)c(C#N)c2ccc(OC)cc21 [Compound 649] | 0.5 to 2 µM |
| CCn1c(-c2ccc(NS(=O)(=O)CCN3CCSCC3)cc2)c(C#N)c2ccc(OC)cc21 [Compound 654] | > 2 µM |
| COc1ccc2c(C#N)c(-c3ccc(NS(C)(=O)=O)cc3)n(CC3CCCC3)c2c1 [Compound 655] | > 2 µM |
| CCn1c(-c2ccc(N)cc2)c(C#N)c2ccc(OC(F)(F)F)cc21 [Compound 656] | > 2 µM |
| CCn1c(-c2ccc(NS(=O)(=O)CC)cc2)c(C#N)c2c(Cl)cccc21 [Compound 657] | > 2 µM |
| N#Cc1c(-c2ccc(N3CCCS3(=O)=O)cc2)n(CC2CC2)c2cc(OC(F)F)ccc12 [Compound 659] | 0.5 to 2 µM |
| CC(C)Oc1ccc2c(C#N)c(-c3ccc(O)c(N)c3)[nH]c2c1 [Compound 663] | > 2 µM |
| CCCOC(=O)Nc1ccc(F)c(-c2c(C#N)c3ccc(OC(C)C)cc3n2CC)c1 [Compound 664] | > 2 µM |
| CCn1c(-c2cc(NC(=O)OCCCl)ccc2F)c(C#N)c2ccc(OC(C)C)cc21 [Compound 665] | > 2 µM |
| CCn1c(-c2cccc(CN(C)S(C)(=O)=O)c2)c(C#N)c2ccc(OC)cc21 [Compound 673] | > 2 µM |
| CCS(=O)(=O)Nc1ccc(-c2c(C#N)c3ccc(OC)cc3n2CCOC)cc1 [Compound 674] | > 2 µM |
| CCn1c(-c2ccc3c(c2)CCN3)c(C#N)c2ccc(OC)cc21 [Compound 678] | > 2 µM |
| CCCS(=O)(=O)Nc1ccc(-c2c(C#N)c3ccc(OC(F)F)cc3n2CC2CC2)cc1 [Compound 682] | 0.5 to 2 µM |
| N#Cc1c(-c2ccc(NS(=O)(=O)CCCCl)cc2)n(CC2CC2)c2cc(OC(F)F)ccc12 [Compound 683] | 0.5 to 2 µM |

| SMILES | IC50 |
| --- | --- |
| CCS(=O)(=O)N(C)c1ccc(-c2c(C#N)c3ccc(OC)cc3n2C(C)C)cc1 [Compound 684] | > 2 µM |
| CCCn1c(-c2ccc(N(C)S(=O)(=O)CC)cc2)c(C#N)c2ccc(OC(F)F)cc21 [Compound 685] | 0.5 to 2 µM |
| CCS(=O)(=O)N(C)c1ccc(-c2c(C#N)c3ccc(OC)cc3n2CC2CC2)cc1 [Compound 686] | 0.5 to 2 µM |
| CCS(=O)(=O)N(C)c1ccc(-c2c(C#N)c3ccc(OC(F)F)cc3n2C)cc1 [Compound 687] | < 0.5 µM |
| COc1ccc2c(C#N)c(-c3ccc(N(C)S(C)(=O)=O)cc3)n(CC3CC3)c2c1 [Compound 688] | 0.5 to 2 µM |
| CCS(=O)(=O)N(C)c1ccc(-c2c(C#N)c3ccc(OC)cc3n2C)cc1 [Compound 694] | 0.5 to 2 µM |
| CCCn1c(-c2ccc(N(C)S(C)(=O)=O)cc2)c(C#N)c2ccc(OC)cc21 [Compound 695] | 0.5 to 2 µM |
| COc1ccc2c(C#N)c(-c3ccc(N(C)S(C)(=O)=O)cc3)n(C(C)C)c2c1 [Compound 696] | 0.5 to 2 µM |
| CCCS(=O)(=O)N1CCc2cc(-c3c(C#N)c4ccc(OC)cc4n3CC)ccc21 [Compound 703] | 0.5 to 2 µM |
| CCn1c(-c2cccc(NS(=O)(=O)NCCCl)c2)c(C#N)c2ccc(OC)cc21 [Compound 704] | > 2 µM |
| CCn1c(-c2cccc(N3CCNS3(=O)=O)c2)c(C#N)c2ccc(OC)cc21 [Compound 705] | > 2 µM |
| CCCCn1c(-c2ccc(NS(=O)(=O)CCC)cc2)c(C#N)c2ccc(OC)cc21 [Compound 708] | 0.5 to 2 µM |
| CCn1c(-c2ccc3[nH]ccc3c2)c(C#N)c2ccc(OC)cc21 [Compound 712] | > 2 µM |
| N#Cc1cn(CC2CC2)c2cc(OC(F)(F)F)ccc12 [Compound 714] | 0.5 to 2 µM |
| CCn1c(-c2ccc(NS(C)(=O)=O)cc2)c(C#N)c2ccc(OC(F)(F)F)cc21 [Compound 715] | < 0.5 µM |
| COc1ccc2c(C#N)c(-c3ccc(S(=O)(=O)NC4CC4)cc3)n(CC3CCCC3)c2c1 [Compound 718] | 0.5 to 2 µM |
| COc1ccc2c(C#N)c(-c3ccc(S(N)(=O)=O)cc3)n(CC3CCCC3)c2c1 [Compound 719] | > 2 µM |
| CCn1c(-c2ccc(N3CCCS3(=O)=O)cc2)c(C#N)c2ccc(OCCN3CCCC3)cc21 [Compound 728] | < 0.5 µM |
| CCn1c(-c2ccc(N3CCCS3(=O)=O)cc2)c(C#N)c2ccc(OCCN3CCOCC3)cc21 [Compound 730] | < 0.5 µM |
| N#Cc1c(-c2ccc(N)cc2)n(CC2CC2)c2cc(OC(F)F)ccc12 [Compound 733] | > 2 µM |
| COCCOC(=O)Nc1ccc(-c2c(C#N)c3ccc(OC(F)F)cc3n2CC2CC2)cc1 [Compound 739] | > 2 µM |
| CCNC(=O)Nc1ccc(-c2c(C#N)c3ccc(OC(F)F)cc3n2CC2CC2)cc1 [Compound 740] | 0.5 to 2 µM |
| CCCOC(=O)Nc1cccc(-c2c(C#N)c3ccc(OC(F)F)cc3n2CC2CC2)c1 [Compound 746] | > 2 µM |
| CCCS(=O)(=O)N1CCc2ccc(-c3c(C#N)c4ccc(OC)cc4n3CC)cc21 [Compound 754] | 0.5 to 2 µM |

same assay, conditions: bicistronic HCV replicon, determined by firefly luciferase signal, cells cultured with compound for 2 days; read-out: Replicon IC5Os

| SMILES | IC50 |
| --- | --- |
| CCn1c(-c2ccc(NC(=O)c3ccc4nonc4c3)cc2)c(C#N)c2cc(OC)ccc21 [Compound 765] | 0.5 to 2 µM |
| CCS(=O)(=O)N(C(C)=O)c1ccc(-c2cc3ccc(OC)cc3n2C(=O)OC(C)(C)C)cc1 [Compound 769] | > 2 µM |
| CCn1c(-c2cccc(N3CCNC3=O)c2)c(C#N)c2ccc(OC)cc21 [Compound 770] | > 2 µM |
| CCCn1c(-c2ccc(N3CCCS3(=O)=O)cc2)c(C#N)c2ccc(OCCOC(C)=O)cc21 [Compound 775] | 0.5 to 2 µM |
| CCOc1ccc2c(C#N)c(-c3ccc(N4CCNC4=O)cc3)n(CC)c2c1 [Compound 778] | < 0.5 µM |
| CCCn1c(-c2cccc(N3CCCS3(=O)=O)c2)c(C#N)c2ccc(OC)cc21 [Compound 783] | > 2 µM |
| CCn1c(N2CCC(NC(=O)OC(C)(C)C)CC2)c(C#N)c2ccc(C(F)(F)F)cc21 [Compound 786] | > 2 µM |
| COC(=O)Nc1cccc(-c2c(C#N)c3ccc(OC)cc3n2Cc2ccccc2)c1 [Compound 787] | > 2 µM |
| CCCCOC(=O)Nc1cccc(-c2c(C#N)c3ccc(OC)cc3n2Cc2ccccc2)c1 [Compound 788] | > 2 µM |
| CCn1c(-c2ccc(N)cc2)c(C#N)c2cc(O)ccc21 [Compound 797] | 0.5 to 2 µM |
| CCn1c(-c2ccc(NC(=O)c3cc(C)on3)cc2)c(C#N)c2ccc(OC(C)C)cc21 [Compound 798] | > 2 µM |
| CCn1c(-c2ccc(NC(=O)c3ccco3)cc2)c(C#N)c2ccc(OC)cc21 [Compound 803] | > 2 µM |
| CCn1c(-c2ccc(NC(=O)c3cc(C)on3)cc2)c(C#N)c2ccc(OC)cc21 [Compound 804] | > 2 µM |
| N#Cc1c(-c2ccc(N3CCCC3=O)cc2)n(CC2CC2)c2cc(OC(F)F)ccc12 [Compound 806] | 0.5 to 2 µM |
| CCCn1c(-c2ccc(N3CCCC3=O)cc2)c(C#N)c2ccc(OC(F)F)cc21 [Compound 808] | 0.5 to 2 µM |
| CC(C)n1c(-c2ccc(N3CCCC3=O)cc2)c(C#N)c2ccc(OC(F)F)cc21 [Compound 809] | 0.5 to 2 µM |
| N#Cc1c(-c2ccc(N3CCCC3=O)cc2)n(C2CCC2)c2cc(OC(F)F)ccc12 [Compound 810] | 0.5 to 2 µM |
| N#Cc1c(-c2ccc(N)cc2)n(C2CCC2)c2cc(OC(F)F)ccc12 [Compound 811] | > 2 µM |
